Test results taken from patent publication US20110144027A1, “PHARMACEUTICAL COMPOSITIONS FOR PROMOTING WOUND HEALING” (priority 2006, published 2011).
Like-named read-outs stand apart in the source and are kept apart here.

How the values were obtained:
[1] = Toxicokinetics after topical application on full-thickness wounds in minipigs; assay type: in vivo, Gottingen SPF minipigs; details: for AUC(0-t) / Cmax / half-life / Tmax: Gottingen SPF, minipig, plasma, topical or ocular, 2000 ug/day, topical 2000 μg/day (500 μg/g Gel), Day 6; for AUC(0-t): read-out: AUC24 h (Mean ± CV); for Cmax: read-out: Cmax (Mean ± CV); for half-life: read-out: T1/2 (Mean ± CV) (converted); for Tmax: read-out: Tmax (Mean ± CV)
Description: (§1) Testing of concentrations of 2-[2-(4-Chlorophenyl)ethoxy]adenosine in blood plasma: 2-[2-(4-Chlorophenyl)ethoxy]adenosine concentrations in blood plasma taken from a patient may be quantitated. A non-limiting example of an assay to quantitate 2-[2-(4-Chlorophenyl)ethoxy]adenosine in blood plasma is an HPLC/MS/MS bioanalytical assay. The assay used an organic precipitation of protein accomplished with addition of acetonitrile to plasma followed by a thorough mixing and centrifugation to separate the denatured protein and supernatant. Aliquots of the supernatant were injected onto a HPLC system equipped with a triple quadrapole mass spectrometer which provided highly specific and sensitive detection of the molecular ion of interest. Concentrations of 2-[2-(4-Chlorophenyl)ethoxy]adenosine were determined from peak area ratios of 2-[2-(4-Chlorophenyl)ethoxy]adenosine and the internal standard using weighted linear regression curves (1/×). The assay was highly robust and reproducible within the validated range of 1.0 to 100 ng/mL.
The objective of this study was to assess the local and the systemic toxicity of the 2-[2-(4-chlorophenyl)ethoxy]adenosine formulation of the instant invention. The testing occurred in Gottingen SPF minipigs. 20 μg/g, 100 μg/g and 500 μg/g concentration of the 2-[2-(4-chlorophenyl)ethoxy]adenosine formulation were created using the methods described in Example I. The 20 μg/g and 100 μg/g formulation are described below. The components of the 500 μg/g formulation and the placebo control were as described in Example 1.
The total dosage of 2-[2-(4-chlorophenyl)ethoxy]adenosine per minipig ranged from 80 μg to 2000 μg/day. The formulation was administered topically once per day in 1 mL (1 g) doses at 20 μg/g, 100 μg/g and 500 μg/g concentration per wound per administration on surgically established full-thickness wounds until wound closure. Each minipig had multiple (4) wounds that received treatment.
A total of 40 Gottingen SPF minipigs (20 males and 20 females) were included in the study. The animals were allocated into four groups each of 4 males and 4 females. In addition, 4 animals (2 of each sex per group), were included as recovery animals for the control/placebo group (Group 1) and the high-dose group (Group 4).
From Day 1 through Day 13, 2-[2-(4-chlorophenyl)ethoxy]adenosine formulation at either 20 μg/g, 100 μg/g or 500 μg/g concentration was applied topically on surgically established circular full-thickness wounds (wound diameter 20 mm; 4 wounds per animal) on a daily basis in a dose volume of approximately 1 mL per wound until wound closure. The dose levels and animal numbers are provided Table 20.
Toxicokinetic sampling occurred on Day 6 at the following time points: pre-treatment, and 0.5, 1, 3, 5, 7, 9, 12 and 24 hours post-treatment. […] Non-compartmental pharmacokinetic analysis of plasma 2-[2-(4-chlorophenyl)ethoxy]adenosine concentration profiles in Groups 2, 3, and 4 (low-, mid- and high-dose) animals yielded pertinent pharmacokinetic parameters, which are summarized by treatment and gender in Table 20.

[2] = Systemic absorption in patients (plasma HPLC/MS/MS assay); assay type: in vivo, human; details: any topical dose concentration (5, 50, 500 μg/g), initial, day 16 and day 28, LLOQ 1.0 ng/mL
Description: as §1
2-[2-(4-Chlorophenyl)ethoxy]adenosine was administered to patients with chronic, neuropathic, diabetic foot ulcers (DFU). […]

wound [3] = details: healthy BALB/C mice; cited from earlier work
wound [4] = details: rats; cited from earlier work

SMILES | AUC(0-t) ([1]; Female minipigs) [ng·h/mL] | Cmax ([1]; Female minipigs) [ng/mL] | half-life ([1]; Female minipigs) [h] | Tmax ([1]; Female minipigs) [h] | AUC(0-t) ([1]; Male minipigs) [ng·h/mL] | Cmax ([1]; Male minipigs) [ng/mL] | half-life ([1]; Male minipigs) [h] | Tmax ([1]; Male minipigs) [h] | absorption into the systemic circulation from topical administration in open wounds ([1]; minipigs, wound healing phase, 80-2000 μg/day) | systemic absorption (blood plasma, HPLC/MS/MS assay) [2] | wound healing (wound [3]) | rate of wound closure (wound [4])
Nc1nc(OCCc2ccc(Cl)cc2)nc2c1ncn2[C@@H]1O[C@H](CO)[C@@H](O)[C@H]1O [2-[2-(4-chlorophenyl)ethoxy]adenosine] | 6.65 | 0.45 | 28.4 | 7.5 | 7.25 | 0.46 | 122 | 7.8 | minimal | No systemic absorption | promote wound healing | –
CCNC(=O)[C@H]1O[C@@H](n2cnc3c(N)nc(NCCc4ccc(CCC(=O)O)cc4)nc32)[C@H](O)[C@@H]1O [CGS 21680, 2-[p-(carboxyethyl)phenylethylamino]-5′-N-ethylcarboxamidoadenosine] | – | – | – | – | – | – | – | – | – | – | – | increase the rate of wound closure
